Test results reported in ChEMBL document CHEMBL1201862, “PubChem BioAssay data set” (2004).
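Five compound concentrations were applied to cells in 96-well plates for 48 hours; endpoints were derived by simple linear interpolation of the resulting dose-response curve. GI50 is the concentration that inhibits growth by half.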 Calls of active or inactive are those of the source. Cut-off read from the data, not from the text of the source: active = GI50 up to about 1.1 µM and inactive = higher.

Experiments:
Assay in all cases: DTP human tumour cell line panel, 48 h
[1] = test system: CCRF-CEM
[2] = test system: COLO 205
[3] = test system: SF-268
[4] = test system: SK-MEL-28
[5] = test system: NCI-H522
[6] = test system: U-251
[7] = test system: NCI-H460
[8] = test system: DU-145
[9] = test system: IGROV-1
[10] = test system: SN12C
[11] = test system: HL-60
[12] = test system: LOX IMVI
[13] = test system: KM12
[14] = test system: HCT-15
[15] = test system: EKVX
[16] = test system: TK-10
[17] = test system: ACHN
[18] = test system: NCI-H226
[19] = test system: SK-OV-3
[20] = test system: MDA-N

SMILES | GI50 [1] | GI50 [2] | GI50 [3] | GI50 [4] | GI50 [5] | GI50 [6] | GI50 [7] | GI50 [8] | GI50 [9] | GI50 [10] | GI50 [11] | GI50 [12] | GI50 [13] | GI50 [14] [µM] | GI50 [15] | GI50 [16] | GI50 [17] | GI50 [18] | GI50 [19] | GI50 [20]
CC(=O)C1=C(C)N(c2ccc(C)cc2)C2(O)C=CC(=O)C3C(=O)N(c4ccccc4)C(=O)C132 (stereo not given) | 3.9 µM (inactive) | 23.3 µM (inactive) | 31 µM (inactive) | 19.5 µM (inactive) | 7.89 µM (inactive) | 17.7 µM (inactive) | 29.4 µM (inactive) | 23.4 µM (inactive) | 8.43 µM (inactive) | 15.5 µM (inactive) | 2.47 µM (inactive) | 3.08 µM (inactive) | 21.9 µM (inactive) | 11.2 | 32.6 µM (inactive) | 18.4 µM (inactive) | 15.9 µM (inactive) | 17.1 µM (inactive) | – | –
CCN(CC)CCCNc1ccc([N+](=O)[O-])c2nc3ccc(OC)cc3c(N)c12 | 1.34 µM (inactive) | 1.34 µM (inactive) | 1.71 µM (inactive) | > 10 µM (inactive) | 2.82 µM (inactive) | > 10 µM (inactive) | 1.82 µM (inactive) | 3.21 µM (inactive) | 2.58 µM (inactive) | 2.07 µM (inactive) | 1.94 µM (inactive) | 1.7 µM (inactive) | 1.57 µM (inactive) | 1.72 | > 10 µM (inactive) | > 10 µM (inactive) | > 6.67 µM (inactive) | > 10 µM (inactive) | > 3.92 µM (inactive) | –
CCCCCCCCCC1(N=[N+]=[N-])C(=O)c2ccccc2N(C)C1=O (stereo not given) | 16.8 µM (inactive) | 32 µM (inactive) | 40 µM (inactive) | 28.8 µM (inactive) | – | 2.22 µM (inactive) | 37.2 µM (inactive) | 28.7 µM (inactive) | 27.2 µM (inactive) | 26.1 µM (inactive) | > 100 µM (inactive) | 15.3 µM (inactive) | 48 µM (inactive) | 30.3 | – | 32.3 µM (inactive) | 32.3 µM (inactive) | – | 25.1 µM (inactive) | 30.7 µM (inactive)
CN(Cc1cnc2nc(N)nc(N)c2n1)c1ccc(C(=O)N[C@@H](CCC(=O)O)C(=O)O)cc1 [METHOTREXATE] | 0.0296 µM (active) | 1.19 µM (inactive) | 0.0409 µM (active) | 4.86 µM (inactive) | 0.25 µM (active) | 0.0723 µM (active) | 0.028 µM (active) | 0.0476 µM (active) | 0.0908 µM (active) | 0.0321 µM (active) | 0.043 µM (active) | 0.0274 µM (active) | 0.0493 µM (active) | 0.0343 | 18.4 µM (inactive) | 37.4 µM (inactive) | 0.0385 µM (active) | 20 µM (inactive) | 20.7 µM (inactive) | –
O=C(/C=C/c1ccc(Cl)cc1)c1ccccc(=O)c1O | 0.255 µM (active) | 1.23 µM (inactive) | 3.12 µM (inactive) | 3.43 µM (inactive) | 5.42 µM (inactive) | 2.26 µM (inactive) | 0.461 µM (active) | 2.61 µM (inactive) | 1.82 µM (inactive) | 0.643 µM (active) | 0.516 µM (active) | 1.29 µM (inactive) | 1.53 µM (inactive) | 0.341 | 1.93 µM (inactive) | 4.55 µM (inactive) | 0.881 µM (active) | 1.41 µM (inactive) | 3.56 µM (inactive) | –
N#Cc1c(N)nc2c(c1-c1ccc(Br)cc1)CSc1ccccc1-2 | 22.4 µM (inactive) | 13.3 µM (inactive) | 33.1 µM (inactive) | 68.7 µM (inactive) | – | 34.4 µM (inactive) | 25.8 µM (inactive) | 96.6 µM (inactive) | 21.9 µM (inactive) | 30 µM (inactive) | 33.7 µM (inactive) | 28.6 µM (inactive) | 56 µM (inactive) | 25.6 | – | 73.1 µM (inactive) | – | 16.1 µM (inactive) | 29.6 µM (inactive) | 49.4 µM (inactive)
OC[C@H]1O[C@@H]2O[C@@](COCc3ccccc3)([C@H](OCc3ccccc3)[C@H]2O)[C@@H]1OCc1ccccc1 | 13.4 µM (inactive) | 17.4 µM (inactive) | 18.1 µM (inactive) | – | 17.3 µM (inactive) | 15.7 µM (inactive) | 17 µM (inactive) | 16.5 µM (inactive) | 13.9 µM (inactive) | 15.7 µM (inactive) | 18.2 µM (inactive) | 16.7 µM (inactive) | 16.7 µM (inactive) | 18.8 | 14.1 µM (inactive) | 18.6 µM (inactive) | 17.3 µM (inactive) | – | 14.8 µM (inactive) | –
CC(C)=CCC/C(C)=C/CC/C(C)=C/CSc1ccccc1C(=O)O [SALIRASIB] | 28.3 µM (inactive) | 23.6 µM (inactive) | 16.6 µM (inactive) | 21.1 µM (inactive) | – | 20.2 µM (inactive) | 17.4 µM (inactive) | 18.2 µM (inactive) | 16.5 µM (inactive) | 23.3 µM (inactive) | 29.7 µM (inactive) | 19.5 µM (inactive) | 17.6 µM (inactive) | 14.7 | 18.4 µM (inactive) | 28.4 µM (inactive) | 37.7 µM (inactive) | 23.5 µM (inactive) | 25.4 µM (inactive) | 22.3 µM (inactive)
